Where “and” joins values, the source holds several entries; their conditions need not be identical. Equal entries are not always repeated.
Tests used:
[1] = Example 3 urinary pharmacokinetics, normal hepatic function vs hepatic impairment; assay type: in vivo, human; settings: for Urine Recovery as % of Dose, Geomean / Urine Recovery as % of Dose, Mean: 0-32 h, single intranasal dose; for CLr Geomean / CLr Mean: Table 26
Protocol: Urine was collected prior to dosing and from 0-2, 2-4, 4-8, 8-12, 12-24, and 24-32 hours after beginning of dose application. […] Urinary pharmacokinetic parameters included total urinary recovery (μg), urinary recovery as a percentage of dose, and CLr.

[2] = Example 2 plasma pharmacokinetics, normal renal function vs severe renal impairment
[3] = Example 1 single-dose plasma pharmacokinetics after intranasal administration; assay type: in vivo, human; settings: healthy subjects; single intranasal 160 mg cocaine HCl; plasma, >12 h after dosing
Protocol: Single-dose plasma and urinary pharmacokinetics of the pharmaceutical composition following intranasal administration was characterized in this study. This was a single-dose study in 30 healthy volunteers. The objective of the study was to examine the systemic pharmacokinetics of the pharmaceutical composition following acute, topical intranasal administration.
A single dose of a pharmaceutical composition was administered to both nostrils using cottonoid pledgets. […] Each pledget absorbed approximately 1 mL of pharmaceutical composition (i.e., 40 mg cocaine hydrochloride). Two soaked pledgets were placed into each nasal cavity of the subject and against the anterior septum for 20 minutes; thus, a total dose of 160 mg of cocaine hydrochloride was administered.
Blood samples were collected pre-dose (30 minutes before pledget insertion), and 7.5, 15, 20, 30, 45, 60, 75, 90, and 105 minutes and 2, 3, 4, 6, 8, 10, and 12 hours from the start of application of the pharmaceutical composition.
The effect of gender on Cmax, Tmax, AUClast, AUCinf, and t1/2 was determined. The effects of age, body weight, and BMI on AUClast were determined.

[4] = normal hepatic function, single intranasal 160 mg cocaine HCl
[5] = subjects with hepatic impairment
[6] = subjects with hepatic impairment, 32 hours post administration
[7] = subjects with hepatic impairment, Table 30
[8] = subjects with normal hepatic function
[9] = subjects with normal hepatic function, Table 29
[10] = normal renal function, single intranasal 160 mg cocaine HCl, plasma
[11] = severe renal impairment, single intranasal 160 mg cocaine HCl, plasma

CN1[C@H]2CC[C@@H]1[C@@H](C(=O)O)[C@@H](OC(=O)c1ccccc1)C2 [BE, benzoylecgonine]
Urine Recovery as % of Dose, Geomean ([1]; Impaired hepatic function): 2.74 % of Dose | Urine Recovery as % of Dose, Mean ([1]; Impaired hepatic function): 3.30 % of Dose | CLr Geomean ([1]; Impaired hepatic function): 2.59 L/h | CLr Mean ([1]; Impaired hepatic function): 2.90 L/h | Urine Recovery as % of Dose, Geomean ([1]; Normal hepatic function): 1.42 % of Dose | Urine Recovery as % of Dose, Mean ([1]; Normal hepatic function): 1.73 % of Dose | CLr Geomean ([1]; Normal hepatic function): 3.96 L/h | CLr Mean ([1]; Normal hepatic function): 4.30 L/h | 0-32 h Urinary Recovery (geometric mean) [1, 4]: 1928.3 µg | 0-32 h Urinary Recovery (mean) [1, 4]: 2359.75 µg | 0-32 h Urinary Recovery (median) [1, 4]: 2098.9 µg | Renal Clearance, geometric mean [1, 5]: 43.11 mL/min | Renal Clearance, mean [1, 5]: 48.27 mL/min | Renal Clearance, median [1, 5]: 47.80 mL/min | 0-32 h Urinary Recovery (geometric mean) [1, 6]: 3735.6 µg | 0-32 h Urinary Recovery (mean) [1, 6]: 4500 µg | 0-32 h Urinary Recovery (median) [1, 6]: 3283.7 µg | Renal Clearance, geometric mean [1, 7]: 43.11 mL/min | Renal Clearance, mean [1, 7]: 48.273 mL/min | Renal Clearance, median [1, 7]: 47.8 mL/min | Renal Clearance, geometric mean [1, 8]: 65.948 mL/min | Renal Clearance, mean [1, 8]: 71.585 mL/min | Renal Clearance, median [1, 8]: 58.237 mL/min | Renal Clearance, geometric mean [1, 9]: 65.95 mL/min | Renal Clearance, mean [1, 9]: 71.585 mL/min | Renal Clearance, median [1, 9]: 58.23 mL/min | AUC0→t (Geometric mean) [2, 10]: 589.5 ng·h/mL | AUC0→t (Max) [2, 10]: 2126 ng·h/mL | AUC0→t (Mean) [2, 10]: 762.1 ng·h/mL | AUC0→t (Median) [2, 10]: 616 ng·h/mL | AUC0→t (Min) [2, 10]: 167.4 ng·h/mL | AUC0→∞ (Geometric mean) [2, 10]: 639.2 ng·h/mL | AUC0→∞ (Max) [2, 10]: 2284 ng·h/mL | AUC0→∞ (Mean) [2, 10]: 823.8 ng·h/mL | AUC0→∞ (Median) [2, 10]: 676 ng·h/mL | AUC0→∞ (Min) [2, 10]: 166.1 ng·h/mL | Clast (Geometric mean) [2, 10]: 4 ng/mL and 3.96 ng/mL | Clast (Max) [2, 10]: 13.60 ng/mL | Clast (Mean) [2, 10]: 5.08 ng/mL | Clast (Median) [2, 10]: 4.34 ng/mL | Clast (Min) [2, 10]: 1.32 ng/mL | Cmax (Geometric mean) [2, 10]: 40.9 ng/mL | Cmax (Max) [2, 10]: 158.0 ng/mL | Cmax (Mean) [2, 10]: 55.7 ng/mL | Cmax (Median) [2, 10]: 42.1 ng/mL | Cmax (Min) [2, 10]: 9.0 ng/mL | Tlast (Geometric mean) [2, 10]: 32.0 h | Tlast (Max) [2, 10]: 32.0 h | Tlast (Mean) [2, 10]: 32.0 h | Tlast (Median) [2, 10]: 32.0 h | Tlast (Min) [2, 10]: 1920 min | Tmax (Geometric mean) [2, 10]: 2.75 h | Tmax (Max) [2, 10]: 6.00 h | Tmax (Mean) [2, 10]: 3.22 h | Tmax (Median) [2, 10]: 2.5 h | Tmax (Min) [2, 10]: 75 min | t1/2 (Geometric mean) [2, 10]: 8.429 h | t1/2 (Max) [2, 10]: 9.79 h | t1/2 (Mean) [2, 10]: 8.47 h | t1/2 (Median) [2, 10]: 8.32 h | t1/2 (Min) [2, 10]: 442 min | geometric mean AUClast, fold higher than in normal subjects ([2]; severe renal impairment vs normal renal function): more than 3.5 fold | AUC0→t (Geometric mean) [2, 11]: 2091 ng·h/mL | AUC0→t (Max) [2, 11]: 6242 ng·h/mL | AUC0→t (Mean) [2, 11]: 2733.6 ng·h/mL | AUC0→t (Median) [2, 11]: 1758 ng·h/mL | AUC0→t (Min) [2, 11]: 605.7 ng·h/mL | Clast (Geometric mean) [2, 11]: 41.3 ng/mL | Clast (Max) [2, 11]: 133.0 ng/mL | Clast (Mean) [2, 11]: 54.36 ng/mL | Clast (Median) [2, 11]: 35.7 ng/mL | Clast (Min) [2, 11]: 14.50 ng/mL | Cmax (Geometric mean) [2, 11]: 90.5 ng/mL | Cmax (Max) [2, 11]: 290.0 ng/mL | Cmax (Mean) [2, 11]: 120.4 ng/mL | Cmax (Median) [2, 11]: 75.8 ng/mL | Cmax (Min) [2, 11]: 23.7 ng/mL | Tlast (Geometric mean) [2, 11]: 32.0 h | Tlast (Max) [2, 11]: 32.0 h | Tlast (Mean) [2, 11]: 32.0 h | Tlast (Median) [2, 11]: 32.0 h | Tlast (Min) [2, 11]: 1920 min | Tmax (Geometric mean) [2, 11]: 6.13 h | Tmax (Max) [2, 11]: 12.0 h | Tmax (Mean) [2, 11]: 6.625 h | Tmax (Median) [2, 11]: 6.0 h | Tmax (Min) [2, 11]: 180 min | t1/2 (Geometric mean) [2, 11]: 24.65 h | t1/2 (Max) [2, 11]: 31.62 h | t1/2 (Mean) [2, 11]: 24.97 h | t1/2 (Median) [2, 11]: 24.0 h | t1/2 (Min) [2, 11]: 1191 min | plasma level not exceeded (metabolite not detectable in plasma) [3]: ≤ 100 ng/mL
